{"source": "paper PMC9065877", "about": "“Safety, tolerability and pharmacokinetics of the oligomer modulator anle138b with exposure levels sufficient for therapeutic efficacy in a murine Parkinson model: A randomised, double-blind, placebo-controlled phase 1a trial” (EBioMedicine, 2022)", "key": {"[1]": {"assay": "Multiple ascending dose (MAD, QD 7 days) oral pharmacokinetics of anle138b in healthy subjects, plasma", "assay_type": "in vivo, human", "description": "This was a single-centre, double-blind, randomised, placebo-controlled single ascending dose (SAD) and multiple ascending dose (MAD) study of anle138b in doses of up to 300 mg per day in healthy subjects. In addition, the effect of food (FES) on the PK of anle138b in healthy subjects was examined using single doses of 150 mg. Participants were recruited from Quotient Sciences (Nottingham, UK) volunteer database.\nAs a safety precaution, sentinel dosing was performed for all SAD and MAD cohorts. In SAD, subjects received a single dose of anle138b or placebo after fasting from all food and drink (except water) for a minimum of 8 h prior to dosing. The dosing in the four SAD-cohorts were 50 mg, 100 mg, 200 mg and 300 mg of free anle138b equivalent, respectively. In the MAD part, participants received anle138b or placebo once daily (QD) for 7 days after fasting from all food and drink (except water) for a minimum of 8 h prior to dosing. The dosing in the three MAD-cohorts was 100 mg, 200 mg and 300 mg of free anle138b equivalent, respectively. Post dosing mouth and hand checks were conducted to ensure the capsules were swallowed. In-study decisions regarding continuation and dose escalation were made by the safety advisory committee (SAC) comprising the principal investigator, the sponsor's medical monitor and a PK expert. For dose escalation to proceed, data needed to be available from a minimum of 6 subjects per cohort with completed per protocol safety and PK assessments up to 48 h after dosing to ensure at least 4 subjects had received active IMP. The decision to proceed to the next higher dose level was based on safety, tolerability and available PK data to 48 h post-dose. The following data were required: Adverse events, vital signs, safety laboratory, ECG, physical examinations, plasma concentrations of anle138b with interim PK parameter estimations (Tmax, Cmax, AUC(0-24), AUC(0-tau), AUC(0-last) and T½, where applicable). Data were provided to the SAC in accordance with Quotient Sciences’ standard operating procedure (SOP) on interim dose decision-making and dose escalation.\nSecondary outcome measures were the oral PK of single (SAD) and multiple (MAD) ascending doses of anle138b in the fasted state as well as the effect of co-administration with food on the PK of anle138b. To this end PK blood samples were taken at day 1 (and for MAD day 7) pre-dose and at 0·5, 1, 1·5, 2, 3, 4, 6, 8, 10, 12, 16 and 20 h post-dose, at days 2 to 6 pre-dose only (MAD) and 24, 30, 36 and 48 h post final dose. Analysis of anle138b in plasma was done at Aptuit, an Evotec company, in Verona, Italy. Time point of last quantifiable data was seen to increase with an increase in dose as follows: SAD: from the 50mg dose (subjects ranged between 8-24h) to the 300mg dose (subjects ranged between 36-48h). MAD: from the 100mg dose (subjects ranged between 8-36h) to the 300mg dose (subjects ranged between 20-48h). In FES, subjects ranged between 24-48h.\nThe study was exploratory and no formal sample size calculation was made. Based on experience from previous studies of similar design, eight subjects per cohort were enrolled for parts 1 (SAD) and 2 (MAD) and a total of twelve subjects for part 3 (FES). Populations and analysis sets were determined for safety and PK data after database lock using the criteria defined in the reporting and analysis plan. The safety population and safety analysis set for SAD and MAD were defined after database lock but prior to study unblinding. Statistical analysis and production of summary tables, figures and listings for all safety data (AEs, vital signs, ECGs and safety laboratory assessments) including changes from baseline as required in this study were performed using the statistical package SAS (v9·4). Additional statistics was provided for PK-related data including coefficient of variation (CV%), geometric mean, geometric CV%, and the number n of subjects that were included in the natural logarithmic transformation). […]"}, "[2]": {"assay": "28-day toxicity study in rats", "settings": "rat, in vivo; for Cmax: at 50 mg, read-out: Cmax at NOAEL", "from_the_text": "(§1) This trial followed the recommendations of the EMA (European Medicines Agency) (EMEA/CHMP/SWP/28367/07 Rev. 1; 20 July 2017) and the FDA (Food and Drug Administration) (Guidance for Industry: Estimating the Maximum Safe Starting Dose in Initial Clinical Trials for Therapeutics in Adult Healthy Volunteers. U.S. Department of Health and Human Services Food and Drug Administration Center for Drug Evaluation and Research (CDER) July 2005) for dose finding in a first-in-human study. The safe starting dose was set based on toxicity studies in animals. In a 28-day toxicity study in rats, the no-observed-adverse-effect-level (NOAEL) was determined to be 50 mg/kg/day (human equivalent dose of 8·1 mg/kg using the FDA factor of 6·2 according to the FDA Guidance for Industry “Estimating the Maximum Safe Starting Dose in Initial Clinical Trials for Therapeutics in Adult Healthy Volunteers”). Cmaxǀexposure at 50 mg in males were 2460ǀ25600 and in females 2680ǀ21700 ng/mL ǀ ng*h/mL. In a 28-day cynomolgus monkey toxicity study, the NOAEL was 125 mg/kg/day (human equivalent dose of 40·3 mg/kg). Cmaxǀexposure at 125 mg/kg/day were 3170ǀ15700 (males) and 2720ǀ9720 (females) ng/mL ǀ ng*h/mL. Based upon these NOAELs a safe starting dose derived from the more sensitive species (rat) was calculated using a safety factor of 10 (i.e., 0·8 mg/kg), which corresponds to a dose of approximately 50 mg assuming a body weight of 60 kg. […] Escalation between doses was planned to be flexible depending on emerging results but not to exceed an increment of 2-fold."}, "[3]": {"assay": "28-day cynomolgus monkey toxicity study", "settings": "in vivo; for Cmax: 125 mg/kg/day, read-out: Cmax at NOAEL", "from_the_text": "as §1"}, "[4]": {"assay": "Blood levels of anle138b after chronic dosing (14 days) in food pellets", "assay_type": "in vivo", "set-up": "dose or concentration left out as unconfirmed", "settings": "mouse, oral, doses of ≥11·, read-out: AUC0-24 exposure", "description": "Based on the analysis of blood levels of anle138b after chronic dosing (14 days) using the same formulation (anle138b in food pellets), doses of ≥11·1 mg/kg/day correspond to an AUC0-24 exposure of ≥ 300 ng*h/ml."}}, "data": [{"smiles": "Brc1cccc(-c2cc(-c3ccc4c(c3)OCO4)n[nH]2)c1", "note": "[anle138b, 3-(1,3-benzodioxol-5-yl)-5-(3-bromophenyl)-1H-pyrazole]", "values": [{"measurement": "Time point of last quantifiable data (range of subjects)", "setting": "[1]; MAD 100mg dose", "result": "8 to 36", "unit": "h"}, {"measurement": "Time point of last quantifiable data (range of subjects)", "setting": "[1]; MAD 300mg dose", "result": "20 to 48", "unit": "h"}, {"measurement": "Effect of multiple dosing on Tmax", "setting": "[1]; MAD day 7 vs day 1", "result": "unaffected by multiple dosing"}, {"measurement": "Exposure relative to the level required for full efficacy in PD mouse model (≥300 ng*h/ml)", "setting": "[1]; highest dose tested (300 mg), multiple dosing", "result": "more than twice this exposure"}, {"measurement": "Cmax", "setting": "[1]; human, plasma, oral, 100 mg, MAD Cohort A 100 mg QD, dosing day 1, fasted, geometric mean (CV%)", "result": 135, "unit": "ng/mL"}, {"measurement": "AUC(0-t)", "setting": "[1]; human, plasma, oral, 100 mg, MAD Cohort A 100 mg QD, dosing day 1, fasted, geometric mean (CV%), read-out: AUC(0-24)", "result": 261, "unit": "ng·h/mL"}, {"measurement": "AUC(0-t)", "setting": "[1]; human, plasma, oral, 100 mg, MAD Cohort A 100 mg QD, dosing day 7, fasted, geometric mean (CV%), read-out: AUC(0-24)", "result": 141, "unit": "ng·h/mL"}, {"measurement": "Cmax", "setting": "[1]; human, plasma, oral, 200 mg, MAD Cohort B 200 mg QD, dosing day 1, fasted, geometric mean (CV%)", "result": 447, "unit": "ng/mL"}, {"measurement": "AUC(0-t)", "setting": "[1]; human, plasma, oral, 200 mg, MAD Cohort B 200 mg QD, dosing day 1, fasted, geometric mean (CV%), read-out: AUC(0-24)", "result": 905, "unit": "ng·h/mL"}, {"measurement": "Cmax", "setting": "[1]; human, plasma, oral, 200 mg, MAD Cohort B 200 mg QD, dosing day 7, fasted, geometric mean (CV%)", "result": 128, "unit": "ng/mL"}, {"measurement": "AUC(0-t)", "setting": "[1]; human, plasma, oral, 200 mg, MAD Cohort B 200 mg QD, dosing day 7, fasted, geometric mean (CV%), read-out: AUC(0-24)", "result": 308, "unit": "ng·h/mL"}, {"measurement": "AUC(0-t)", "setting": "[1]; human, plasma, oral, 200 mg, multiple dosing at a daily dose of 200 mg, read-out: Exposure level (AUC0-24)", "result": "≥ 300", "unit": "ng·h/mL"}, {"measurement": "Cmax", "setting": "[1]; human, plasma, oral, 300 mg, MAD Cohort C 300 mg QD, dosing day 1, fasted, geometric mean (CV%)", "result": 910, "unit": "ng/mL"}, {"measurement": "AUC(0-t)", "setting": "[1]; human, plasma, oral, 300 mg, MAD Cohort C 300 mg QD, dosing day 1, fasted, geometric mean (CV%), read-out: AUC(0-24)", "result": 2210, "unit": "ng·h/mL"}, {"measurement": "Cmax", "setting": "[1]; human, plasma, oral, 300 mg, MAD Cohort C 300 mg QD, dosing day 7, fasted, geometric mean (CV%)", "result": 307, "unit": "ng/mL"}, {"measurement": "AUC(0-t)", "setting": "[1]; human, plasma, oral, 300 mg, MAD Cohort C 300 mg QD, dosing day 7, fasted, geometric mean (CV%), read-out: AUC(0-24)", "result": 633, "unit": "ng·h/mL"}, {"measurement": "half-life", "setting": "[1]; human, plasma, oral, MAD Cohort B 200 mg QD, dosing day 7, fasted, geometric mean (CV%), N=5", "result": "~600", "unit": "min"}, {"measurement": "Day by which steady state exposure appeared to be reached", "setting": "[1]; trough (pre-dose) levels, repeated daily dosing", "result": "≤ 5", "unit": "days"}, {"measurement": "Cmax", "setting": "[2]; female, females", "result": 2680, "unit": "ng/mL"}, {"measurement": "Cmax", "setting": "[2]; male, males", "result": 2460, "unit": "ng/mL"}, {"measurement": "NOAEL at 28 days", "setting": "[2]; 28-day toxicity study, read-out: no-observed-adverse-effect-level (NOAEL)", "result": 50, "unit": "mg/kg/day"}, {"measurement": "Cmax", "setting": "[3]; female, females", "result": 2720, "unit": "ng/mL"}, {"measurement": "NOAEL at 28 days", "setting": "[3]; 28-day toxicity study", "result": 125, "unit": "mg/kg/day"}, {"measurement": "Cmax", "setting": "[3]; male, males", "result": 3170, "unit": "ng/mL"}, {"measurement": "AUC(0-t)", "setting": "[4]", "result": "≥ 300", "unit": "ng·h/mL"}]}]}
